Experimental data published in patent publication US6294519A, “Method for treating ischemia” (University of Kentucky Research Foundation, priority 2000, dated 2001).

Tested on: focal middle cerebral arterial occlusion (MCAO) ischemia
Conditions: for neurological deficits (behavior ranking 0 to 3): 4 mg/kg i.p. at 6.5, 4.5, 2.5 and 0.5 h prior to ischemia, 24 h reperfusion, mean±SEM, n=8, 0=normal, 3=severe; for neurological deficits (behavior ranking 0 to 3) / infarct volume reduction compared to control animals: 1 h MCAO; for infarct volume reduction compared to control animals / differences in MABP, pO2, pCO2, pH or rectal temperature versus control animals: 4 mg/kg i.p. x4 prior to ischemia; for infarct volume reduction compared to control animals / statistical significance of the infarct volume difference versus control: after 24 h of reperfusion; for statistical significance of the infarct volume difference versus control: significance at p<0.05; for differences in MABP, pO2, pCO2, pH or rectal temperature versus control animals: post ischemia

Structure (SMILES) | neurological deficits (behavior ranking 0 to 3) | infarct volume reduction compared to control animals | statistical significance of the infarct volume difference versus control | differences in MABP, pO2, pCO2, pH or rectal temperature versus control animals
CC(C)C[C@@H](NC(=O)[C@H](Cc1ccccc1)NC(=O)CNC(=O)[C@@H](C)NC(=O)[C@@H](N)Cc1ccc(O)cc1)C(=O)O [DADLE, Tyr-D-Ala-Gly-Phe-D-Leu-enkephalin] | 1.73±0.20 | 12% | not statistically significant | no significant differences
CC(C)[C@H](NC(=O)[C@H](CC(=O)O)NC(=O)[C@H](Cc1ccccc1)NC(=O)[C@@H](C)NC(=O)[C@@H](N)Cc1ccc(O)cc1)C(=O)N[C@H](C(=O)NCC(N)=O)C(C)C [deltorphin, Tyr-Ala-Phe-Asp-Val-Val-Gly-NH2] | 0.44±0.11 | 42% | significantly reduced | no significant differences
